Results taken from patent US9409884B2 (Rigel Pharmaceuticals, Inc., priority 2012, dated 2016).

These compounds were tested against AMPK (assay: AMPK activation, enzyme-linked immunosorbent assay). Conditions: Table 8, compounds of Table 1.
Type: biochemical
How it was run: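 AMPK activation by test compounds was measured by enzyme-linked immunosorbent assay.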

| EC50 [nM] | SMILES |
| --- | --- |
| 100 to 500 | FC(F)(F)c1ccc(N2CCC(Oc3ccc4c(c3)CCC4NC3CCN(Cc4ccncc4)CC3)CC2)cc1 (stereo not shown) [Compound 1-158, 1-(pyridin-4-ylmethyl)-N-(5-(1-(4-(trifluoromethyl)phenyl)piperidin-4-yloxy)-2,3-dihydro-1H-inden-1-yl)piperidin-4-amine] |
| 100 to 500 | Fc1ccc(CN2CCC(NC3CCc4cc(OC5CCN(c6ccc(C(F)(F)F)cc6)CC5)ccc43)CC2)cc1 (stereo not shown) [Compound 1-159, 1-(4-fluorobenzyl)-N-(5-(1-(4-(trifluoromethyl)phenyl)piperidin-4-yloxy)-2,3-dihydro-1H-inden-1-yl)piperidin-4-amine] |
| < 100 | N#Cc1ccc(CN2CCC(NC3CCc4cc(OC5CCN(c6ccc(C(F)(F)F)cc6)CC5)ccc43)CC2)cc1 (stereo not shown) [Compound 1-160, 4-((4-(5-(1-(4-(trifluoromethyl)phenyl)piperidin-4-yloxy)-2,3-dihydro-1H-inden-1-ylamino)piperidin-1-yl)methyl)benzonitrile] |
| 500 to 1000 | N#Cc1ccc(CN2CCC(NC(=O)c3cc4ccc(OC5CCN(Cc6cnn(-c7ccc(C#N)cc7)c6)CC5)cc4o3)CC2)cc1 [Compound 1-161, N-(1-(4-cyanobenzyl)piperidin-4-yl)-6-(1-((1-(4-cyanophenyl)-1H-pyrazol-4-yl)methyl)piperidin-4-yloxy)benzofuran-2-carboxamide] |
| < 100 | N#Cc1ccc(CN2CCC(NC(=O)c3cc4cc(OC5CCN(Cc6cnn(-c7ccc(C#N)cc7)c6)CC5)ccc4o3)CC2)cc1 [Compound 1-162, N-(1-(4-cyanobenzyl)piperidin-4-yl)-5-(1-((1-(4-cyanophenyl)-1H-pyrazol-4-yl)methyl)piperidin-4-yloxy)benzofuran-2-carboxamide] |
| < 100 | N#Cc1ccc(CN2CCC(NC(=O)c3cc4cc(OC5CCN(C(=O)c6ccc(-n7cccn7)cc6)CC5)ccc4o3)CC2)cc1 [Compound 1-163, 5-(1-(4-(1H-pyrazol-1-yl)benzoyl)piperidin-4-yloxy)-N-(1-(4-cyanobenzyl)piperidin-4-yl)benzofuran-2-carboxamide] |
| 100 to 500 | N#Cc1ccc(CN2CCC(NC(=O)c3cc4cc(O[C@@H]5CCN(Cc6ccc(-n7cccn7)cc6)C[C@H]5F)ccc4o3)CC2)cc1 [Compound 1-164, 5-((3,4-trans)-1-(4-(1H-pyrazol-1-yl)benzyl)-3-fluoropiperidin-4-yloxy)-N-(1-(4-cyanobenzyl)piperidin-4-yl)benzofuran-2-carboxamide] |
| < 100 | N#Cc1ccc(CN2CCC(NC(=O)c3cc4cc(O[C@@H]5CCN(Cc6ccc(Oc7ccc(F)cc7)cc6)C[C@H]5F)ccc4o3)CC2)cc1 [Compound 1-165, N-(1-(4-cyanobenzyl)piperidin-4-yl)-5-((3,4-trans)-3-fluoro-1-(4-(4-fluorophenoxy)benzyl)piperidin-4-yloxy)benzofuran-2-carboxamide] |
| < 100 | N#Cc1ccc(CN2CCC(NC(=O)c3cc4cc(O[C@@H]5CCN(Cc6cnn(-c7ccc(C#N)cc7)c6)C[C@H]5F)ccc4o3)CC2)cc1 [Compound 1-166, N-(1-(4-cyanobenzyl)piperidin-4-yl)-5-((3,4-trans)-1-((1-(4-cyanophenyl)-1H-pyrazol-4-yl)methyl)-3-fluoropiperidin-4-yloxy)benzofuran-2-carboxamide] |
| < 100 | CS(=O)(=O)c1ccc(CN2CC[C@@H](Oc3ccc4oc(C(=O)NC5CCN(Cc6ccc(C#N)cc6)CC5)cc4c3)[C@H](F)C2)cc1 [Compound 1-167, N-(1-(4-cyanobenzyl)piperidin-4-yl)-5-((3,4-trans)-3-fluoro-1-(4-(methylsulfonyl)benzyl)piperidin-4-yloxy)benzofuran-2-carboxamide] |
| < 100 | N#Cc1ccc(CN2CCC(NC(=O)c3cc4cc(O[C@@H]5CCN(Cc6ccc(OC(F)(F)F)cc6)C[C@H]5F)ccc4o3)CC2)cc1 [Compound 1-168, N-(1-(4-cyanobenzyl)piperidin-4-yl)-5-((3,4-trans)-3-fluoro-1-(4-(trifluoromethoxy)benzyl)piperidin-4-yloxy)benzofuran-2-carboxamide] |
| < 100 | O=C(NC1CCN(Cc2ccc(OC(F)(F)F)cc2)CC1)c1cc2cc(O[C@@H]3CCN(Cc4ccc(-n5cccn5)cc4)C[C@H]3F)ccc2o1 [Compound 1-169, 5-((3,4-trans)-1-(4-(1H-pyrazol-1-yl)benzyl)-3-fluoropiperidin-4-yloxy)-N-(1-(4-(trifluoromethoxy)benzyl)piperidin-4-yl)benzofuran-2-carboxamide] |
| < 100 | O=C(NC1CCN(Cc2ccc(OC(F)(F)F)cc2)CC1)c1cc2cc(O[C@@H]3CCN(Cc4ccc(Oc5ccc(F)cc5)cc4)C[C@H]3F)ccc2o1 [Compound 1-170, 5-((3,4-trans)-3-fluoro-1-(4-(4-fluorophenoxy)benzyl)piperidin-4-yloxy)-N-(1-(4-(trifluoromethoxy)benzyl)piperidin-4-yl)benzofuran-2-carboxamide] |
| < 100 | N#Cc1ccc(-n2cc(CN3CC[C@@H](Oc4ccc5oc(C(=O)NC6CCN(Cc7ccc(OC(F)(F)F)cc7)CC6)cc5c4)[C@H](F)C3)cn2)cc1 [Compound 1-171, 5-((3,4-trans)-1-((1-(4-cyanophenyl)-1H-pyrazol-4-yl)methyl)-3-fluoropiperidin-4-yloxy)-N-(1-(4-(trifluoromethoxy)benzyl)piperidin-4-yl)benzofuran-2-carboxamide] |
| < 100 | CS(=O)(=O)c1ccc(CN2CC[C@@H](Oc3ccc4oc(C(=O)NC5CCN(Cc6ccc(OC(F)(F)F)cc6)CC5)cc4c3)[C@H](F)C2)cc1 [Compound 1-172, 5-((3,4-trans)-3-fluoro-1-(4-(methylsulfonyl)benzyl)piperidin-4-yloxy)-N-(1-(4-(trifluoromethoxy)benzyl)piperidin-4-yl)benzofuran-2-carboxamide] |
| < 100 | O=C(NC1CCN(Cc2ccc(OC(F)(F)F)cc2)CC1)c1cc2cc(O[C@@H]3CCN(Cc4ccc(OC(F)(F)F)cc4)C[C@H]3F)ccc2o1 [Compound 1-173, 5-((3,4-trans)-3-fluoro-1-(4-(trifluoromethoxy)benzyl)piperidin-4-yloxy)-N-(1-(4-(trifluoromethoxy)benzyl)piperidin-4-yl)benzofuran-2-carboxamide] |
| < 100 | N#Cc1ccc(CN2CCC(NC(=O)c3cc4cc(OC5CCN(Cc6ccc(C(F)(F)F)cc6)CC5)ccc4o3)CC2)cc1 [Compound 1-174, N-(1-(4-cyanobenzyl)piperidin-4-yl)-5-(1-(4-(trifluoromethyl)benzyl)piperidin-4-yloxy)benzofuran-2-carboxamide] |
| < 100 | CS(=O)(=O)c1ccc(CN2CCC(Oc3ccc4oc(C(=O)NC5CCN(Cc6ccc(C#N)cc6)CC5)cc4c3)CC2)cc1 [Compound 1-175, N-(1-(4-cyanobenzyl)piperidin-4-yl)-5-(1-(4-(methylsulfonyl)benzyl)piperidin-4-yloxy)benzofuran-2-carboxamide] |

Same assay, conditions: Table 9, compounds of Table 2

| EC50 [nM] | SMILES |
| --- | --- |
| 1000 to 5000 | N#Cc1ccc(CN2CCC(NC(=O)c3ccc4[nH]c5c(c4c3)CN(C(=O)OCc3ccccc3)CC5)CC2)cc1 [Compound 2-1, benzyl 8-(1-(4-cyanobenzyl)piperidin-4-ylcarbamoyl)-3,4-dihydro-1H-pyrido[4,3-b]indole-2(5H)-carboxylate] |
| 10000 to 50000 | O=C(NC1CCN(Cc2ccccc2)CC1)c1ccc2[nH]c3c(c2c1)CN(C(=O)OCc1ccccc1)CC3 [Compound 2-2, benzyl 8-(1-(4-benzyl)piperidin-4-ylcarbamoyl)-3,4-dihydro-1H-pyrido[4,3-b]indole-2(5H)-carboxylate] |
| 1000 to 5000 | N#Cc1ccc(CN2CCC(NC(=O)c3ccc4[nH]c5c(c4c3)CN(Cc3ccccc3)CC5)CC2)cc1 [Compound 2-4, 2-benzyl-N-(1-(4-cyanobenzyl)piperidin-4-yl)-2,3,4,5-tetrahydro-1H-pyrido[4,3-b]indole-8-carboxamide] |
| 1000 to 5000 | O=C(NC1CCN(Cc2ccc(C(F)(F)F)cc2)CC1)c1ccc2[nH]c3c(c2c1)CN(Cc1ccccc1)CC3 [Compound 2-5, 2-benzyl-N-(1-(4-trifluoromethylbenzyl)piperidin-4-yl)-2,3,4,5-tetrahydro-1N-pyrido[4,3-b]indole-8-carboxamide] |
| 500 to 1000 | CC(C)(C)OC(=O)N1CCC(NC(=O)c2ccc3[nH]c4c(c3c2)CN(Cc2ccc(C(F)(F)F)cc2)CC4)CC1 [Compound 2-6, tert-butyl 4-(2-(4-(trifluoromethyl)benzyl)-2,3,4,5-tetrahydro-1H-pyrido[4,3-b]indole-8-carboxamido)piperidine-1-carboxylate] |
| 5000 to 10000 | O=C(NC1CCN(Cc2ccncc2)CC1)c1ccc2[nH]c3c(c2c1)CN(Cc1ccccc1)CC3 [Compound 2-7, 2-benzyl-N-(1-(pyridin-4-ylmethyl)piperidin-4-yl)-2,3,4,5-tetrahydro-1H-pyrido[4,3-b]indole-8-carboxamide] |
| 5000 to 10000 | O=C(NC1CCN(Cc2cccnc2)CC1)c1ccc2[nH]c3c(c2c1)CN(Cc1ccc(F)cc1)CC3 [Compound 2-8, 2-(4-fluorobenzyl)-N-(1-(pyridin-3-ylmethyl)piperidin-4-yl)-2,3,4,5-tetrahydro-1H-pyrido[4,3-b]indole-8-carboxamide] |
| < 500 | N#Cc1ccc(CN2CCC(NC(=O)c3ccc4[nH]c5c(c4c3)CN(Cc3ccc(F)cc3)CC5)CC2)cc1 [Compound 2-9, N-(1-(4-cyanobenzyl)piperidin-4-yl)-2-(4-fluorobenzyl)-2,3,4,5-tetrahydro-1H-pyrido[4,3-b]indole-8-carboxamide] |
| 500 to 1000 | O=C(NC1CCN(Cc2ccc(C(F)(F)F)cc2)CC1)c1ccc2[nH]c3c(c2c1)CN(Cc1ccc(F)cc1)CC3 [Compound 2-10, N-(1-(4-trifluoromethylbenzyl)piperidin-4-yl)-2-(4-fluorobenzyl)-2,3,4,5-tetrahydro-1H-pyrido[4,3-b]indole-8-carboxamide] |

| SMILES | EC50 [nM] |
| --- | --- |
| CC(C)(C)OC(=O)N1CCC(NC(=O)c2ccc3[nH]c4c(c3c2)CN(C(=O)OCc2ccccc2)CC4)CC1 [Compound 2-3, benzyl 8-(1-(tert-butoxycarbonyl)piperidin-4-ylcarbamoyl)-3,4-dihydro-1H-pyrido[4,3-b]indole-2(5H)-carboxylate] | 10000 to 50000 |
